Experimental findings from US9969887B2, “Merocyanine-based compounds, and dyes, kits and contrast medium compositions for labelling biomolecules comprising the same” (SFC CO., LTD., priority 2016, dated 2018) are described below.

The subject of one data set is DNA. The data set can be described thus: Absorption and emission spectra and quantum efficiency in the presence of DNA. The data set is classed as physicochemical. Here is the method: Absorption spectra (λabs), emission spectra (λem) and quantum efficiency measured in the presence of DNA with compounds 1 to 8 and 36 to 39, and commercially available SYBR® safe were measured and are shown in Table 3 below.

Data set [1] is described as follows: Absorption and emission spectra, molar extinction coefficient and quantum efficiency in solvent. The data set is classed as physicochemical. Here is the method:
Absorption spectra (λabs), emission spectra (λem), molar extinction coefficient (ε) and quantum efficiency of compounds 1 to 8 obtained in Preparation Examples 1 to 4, and commercially available SYBR® safe were measured and shown in Table 1 below.
Absorption spectra (λabs), emission spectra (λem), molar extinction coefficient (ε) and quantum efficiency of Compounds 36 to 39 obtained in Preparation Examples 6 and 7 and commercially available SYBR® safe were measured and shown in Table 2 below.

A short description of data set [2]: Thermal stability test, absorbance on standing at 95° C. in PCR reaction buffer. The data set is classed as physicochemical. Here is the method: In order to confirm the stability of the fluorescent dye in the PCR reaction, 20 μL of PCR reaction buffer containing 1 μL of Compound 38 and 1 μL of EvaGreen™ (Biotium), respectively, was prepared. Each PCR reaction buffer was heated to 95° C., and the absorbance which varies with the standing time at 95° C. was measured.

Data set [3] deals with Salmonella typhimurium TA98 strain. The data set can be described thus: Ames test with S9 mixture. Conditions: 40 μg/plate, TA98, S9 mixture.

In the case of `O=C(CCCCCN1C=CC2=C3c4oc5ccccc5[n+]4CCC3Oc3cccc1c32)NCCOCCNC(=O)CCCCCN1C=CC2=C3c4oc5ccccc5[n+]4CCC3Oc3cccc1c32` (centres unmarked) [Compound 36], in the data set with DNA, the Quantum efficiency is 0.67, the λabs was 492 nm and the λem was 511 nm. Also, in data set [1] (DMSO), the Quantum efficiency worked out at 0.65, the “ε (molar extinction coefficient)” value is on record as 95,000 M^−1cm^−1, the λabs is given as 492 nm and the λem worked out at 520 nm. In addition, in data set [1] (buffer), the Quantum efficiency is reported as 0.12, the “ε (molar extinction coefficient)” value is reported as 83,000 M^−1cm^−1, the λabs worked out at 458 nm and the λem was determined as 526 nm.

As to `O=C(CCCCCN1C=CC2=C3c4sc5ccccc5[n+]4CCC3Oc3cccc1c32)NCCOCCOCCOCCNC(=O)CCCCCN1C=CC2=C3c4sc5ccccc5[n+]4CCC3Oc3cccc1c32` (centres unmarked) [Compound 4], in the data set with DNA, the Quantum efficiency is given as 0.88, the λabs is on record as 517 nm and the λem is given as 539 nm. For the same compound, in data set [1] (DMSO), the Quantum efficiency is given as 0.73, the “ε (molar extinction coefficient)” value is 95,000 M^−1cm^−1, the λabs turned out to be 517 nm and the λem worked out at 565 nm. Besides, in data set [1] (buffer), the Quantum efficiency was 0.03, the “ε (molar extinction coefficient)” value is 85,000 M^−1cm^−1, the λabs is given as 484 nm and the λem came to 566 nm.

As to `O=C(CCCCCN1C=CC2=C3c4oc5ccccc5[n+]4CCC3Oc3cccc1c32)NCCCOCCOCCOCCCNC(=O)CCCCCN1C=CC2=C3c4oc5ccccc5[n+]4CCC3Oc3cccc1c32` (centres unmarked) [Compound 39], in the data set with DNA, the Quantum efficiency is 0.70, the λabs was 492 nm and the λem stood at 513 nm. For the same compound, in data set [1] (DMSO), the Quantum efficiency amounted to 0.70, the “ε (molar extinction coefficient)” value was 116,000 M^−1cm^−1, the λabs amounted to 492 nm and the λem turned out to be 520 nm. In data set [1] (buffer), the Quantum efficiency worked out at 0.15, the “ε (molar extinction coefficient)” value is listed as 98,000 M^−1cm^−1, the λabs was 459 nm and the λem came to 523 nm.

For the compound `O=C(CCCCCN1C=CC2=C3c4sc5ccccc5[n+]4CCC3Oc3cccc1c32)NCCCOCCOCCOCCCNC(=O)CCCCCN1C=CC2=C3c4sc5ccccc5[n+]4CCC3Oc3cccc1c32` (centres unmarked) [Compound 2], in the data set with DNA, the Quantum efficiency is given as 0.93, the λabs is on record as 517 nm and the λem stood at 541 nm. Moreover, in data set [1] (DMSO), the Quantum efficiency was 0.88, the “ε (molar extinction coefficient)” value is 101,000 M^−1cm^−1, the λabs is listed as 517 nm and the λem is on record as 566 nm. Moreover, in data set [1] (buffer), the Quantum efficiency amounted to 0.08, the “ε (molar extinction coefficient)” value was 83,000 M^−1cm^−1, the λabs amounted to 484 nm and the λem is 565 nm.

For the compound `O=C(CCCCCN1C=CC2=C3c4oc5ccccc5[n+]4CCC3Oc3cccc1c32)NCCOCCOCCOCCNC(=O)CCCCCN1C=CC2=C3c4oc5ccccc5[n+]4CCC3Oc3cccc1c32` (centres unmarked) [Compound 38], the values for the Quantum efficiency (with DNA; in data set [1] (DMSO); in data set [1] (buffer)) were 0.76, 0.67 and 0.17, respectively. In addition, the figures for the λabs (with DNA; in data set [1] (DMSO); in data set [1] (buffer)) were 492 nm, 492 nm and 459 nm, respectively. Moreover, the λem amounted to 512 nm in the data set with DNA, 520 nm in data set [1] (DMSO) and 522 nm in data set [1] (buffer). In addition, the “ε (molar extinction coefficient)” value in data set [1] (DMSO) was 110,000 M^−1cm^−1; in data set [1] (buffer), 95,000 M^−1cm^−1. For the same compound, the high temperature stability result in data set [2] (95° C., compared with EvaGreen) is reported as “greater than EvaGreen™”. The Absorbance in data set [2] (standing time 0 hr at 95° C.) is 0.127; in data set [2] (standing time 0.5 hr at 95° C.) it was 0.149; in data set [2] (standing time 1 hr at 95° C.) it was 0.162; in data set [2] (standing time 2 hr at 95° C.), 0.163; in data set [2] (standing time 3 hr at 95° C.), 0.178.

For `O=C(CCCCCN1C=CC2=C3c4sc5ccccc5[n+]4CCC3Oc3cccc1c32)NCCOCCNC(=O)CCCCCN1C=CC2=C3c4sc5ccccc5[n+]4CCC3Oc3cccc1c32` (centres unmarked) [Compound 1], in the data set on DNA, the Quantum efficiency came to 1.00, the λabs turned out to be 517 nm and the λem is recorded as 541 nm. In addition, in data set [1] (DMSO), the Quantum efficiency is recorded as 0.52, the “ε (molar extinction coefficient)” value is 109,000 M^−1cm^−1, the λabs is listed as 517 nm and the λem is listed as 567 nm. Besides, in data set [1] (buffer), the Quantum efficiency came out at 0.03, the “ε (molar extinction coefficient)” value is given as 92,000 M^−1cm^−1, the λabs turned out to be 484 nm and the λem amounted to 568 nm.

For `O=C(CCCCCN1C=CC2=C3c4sc5ccc(Cl)cc5[n+]4CCC3Oc3cccc1c32)NCCCOCCOCCOCCCNC(=O)CCCCCN1C=CC2=C3c4sc5ccc(Cl)cc5[n+]4CCC3Oc3cccc1c32` (centres unmarked) [Compound 8], in the data set on DNA, the Quantum efficiency turned out to be 0.80, the λabs is 517 nm and the λem was 538 nm. For the same compound, in data set [1] (DMSO), the Quantum efficiency is listed as 0.71, the “ε (molar extinction coefficient)” value is 89,000 M^−1cm^−1, the λabs was found to be 517 nm and the λem is reported as 563 nm. For the same compound, in data set [1] (buffer), the Quantum efficiency was 0.04, the “ε (molar extinction coefficient)” value was 78,000 M^−1cm^−1, the λabs came to 484 nm and the λem is 565 nm.

For the compound `O=C(CCCCCN1C=CC2=C3c4oc5ccccc5[n+]4CCC3Oc3cccc1c32)NCCOCCOCCNC(=O)CCCCCN1C=CC2=C3c4oc5ccccc5[n+]4CCC3Oc3cccc1c32` (centres unmarked) [Compound 37], in the data set with DNA, the Quantum efficiency worked out at 0.64, the λabs worked out at 492 nm and the λem worked out at 512 nm. Further, in data set [1] (DMSO), the Quantum efficiency was determined as 0.63, the “ε (molar extinction coefficient)” value was 100,000 M^−1cm^−1, the λabs is reported as 492 nm and the λem is listed as 520 nm. In data set [1] (buffer), the Quantum efficiency is reported as 0.14, the “ε (molar extinction coefficient)” value was 85,000 M^−1cm^−1, the λabs worked out at 458 nm and the λem is listed as 524 nm.

Turning to `CC[n+]1c(-c2ccccc2)c2cc(N)ccc2c2ccc(N)cc21.[Br-]` [EtBr, ethidium bromide, reference compound], in data set [3], the “Number of colonies per plate” value turned out to be 3051 ± 181.

With `O=C(CCCCCN1C=CC2=C3c4sc5ccc(Cl)cc5[n+]4CCC3Oc3cccc1c32)NCCOCCNC(=O)CCCCCN1C=CC2=C3c4sc5ccc(Cl)cc5[n+]4CCC3Oc3cccc1c32` (centres unmarked) [Compound 5], in the data set on DNA, the Quantum efficiency is 0.86, the λabs is recorded as 517 nm and the λem is 537 nm. Also, in data set [1] (DMSO), the Quantum efficiency was 0.64, the “ε (molar extinction coefficient)” value is given as 73,000 M^−1cm^−1, the λabs amounted to 517 nm and the λem came to 564 nm. Further, in data set [1] (buffer), the Quantum efficiency is 0.05, the “ε (molar extinction coefficient)” value is recorded as 60,000 M^−1cm^−1, the λabs was 484 nm and the λem came to 562 nm.

For `O=C(CCCCCN1C=CC2=C3c4sc5ccccc5[n+]4CCC3Oc3cccc1c32)NCCOCCOCCNC(=O)CCCCCN1C=CC2=C3c4sc5ccccc5[n+]4CCC3Oc3cccc1c32` (centres unmarked) [Compound 3], in the data set on DNA, the Quantum efficiency came to 0.86, the λabs was 517 nm and the λem stood at 540 nm. Further, in data set [1] (DMSO), the Quantum efficiency is on record as 0.55, the “ε (molar extinction coefficient)” value is listed as 84,000 M^−1cm^−1, the λabs is recorded as 517 nm and the λem stood at 565 nm. In data set [1] (buffer), the Quantum efficiency is 0.03, the “ε (molar extinction coefficient)” value was 66,000 M^−1cm^−1, the λabs is 484 nm and the λem was determined as 564 nm.

In the case of `O=C(CCCCCN1C=CC2=C3c4sc5ccc(Cl)cc5[n+]4CCC3Oc3cccc1c32)NCCOCCOCCOCCNC(=O)CCCCCN1C=CC2=C3c4sc5ccc(Cl)cc5[n+]4CCC3Oc3cccc1c32` (centres unmarked) [Compound 7], in the data set with DNA, the Quantum efficiency stood at 0.71, the λabs is 517 nm and the λem is 538 nm. Also, in data set [1] (DMSO), the Quantum efficiency was determined as 0.64, the “ε (molar extinction coefficient)” value is 83,000 M^−1cm^−1, the λabs is 517 nm and the λem amounted to 563 nm. For the same compound, in data set [1] (buffer), the Quantum efficiency is 0.06, the “ε (molar extinction coefficient)” value is recorded as 75,000 M^−1cm^−1, the λabs is 484 nm and the λem is given as 560 nm.
